# In patent publication US20240246980A1, “MODULATORS OF MAS-RELATED G-PROTEIN RECEPTOR D AND RELATED PRODUCTS AND METHODS” (Escient Pharmaceuticals, Inc., priority 2022, published 2024):
# Target: human MRGPRD (Homo sapiens, UniProt Q8TDS7)
# Assay: MRGPRD antagonist activity, IP-One HTRF assay in CHO cells stably expressing human MRGPRD (versus 100 μM β-Alanine agonist)
# Format: cell-based
# Method in brief: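 Cells (20,000/well, plated overnight) received antagonist and agonist in buffer with 5.7 mM Tris-HCl, 43 mM NaCl and 50 mM LiCl at pH 8. Incubation ran 1 h at 37 °C, then 1 h at room temperature, before IP-1 HTRF detection. IC50 was fitted from the HTRF ratio, and percent antagonism was taken relative to the maximum efficacy response, given as averages with SEM.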
# Sequence of human MRGPRD (Q8TDS7 whole entry): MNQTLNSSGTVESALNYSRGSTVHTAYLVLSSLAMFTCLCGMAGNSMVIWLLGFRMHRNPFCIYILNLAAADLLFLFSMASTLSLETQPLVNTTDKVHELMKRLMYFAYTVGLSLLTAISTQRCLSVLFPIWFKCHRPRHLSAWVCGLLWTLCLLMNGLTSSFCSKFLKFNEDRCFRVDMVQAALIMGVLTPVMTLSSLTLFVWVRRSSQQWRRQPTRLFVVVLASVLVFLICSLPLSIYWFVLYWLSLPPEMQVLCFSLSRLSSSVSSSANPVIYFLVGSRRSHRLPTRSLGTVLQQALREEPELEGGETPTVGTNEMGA
row,Structure (SMILES),IC50
1,COc1cccc(-c2nc([C@@H]3CCCN(C(=O)Cc4cccc(F)c4)C3)n3ccccc23)c1 [Compound 12-13],100 to 500 nM
2,COc1cccc(-c2nc([C@@H]3CCCN(C(=O)c4cccc(F)c4)C3)n3ccccc23)c1 [Compound 12-14],500 to 1000 nM
3,COc1cccc(-c2nc([C@H]3CCCN(C(=O)c4cccc(F)c4)C3)n3ccccc23)c1 [Compound 12-15],100 to 500 nM
4,COc1cccc(-c2nc([C@H]3CCCN(C(=O)Cc4cccc(F)c4)C3)n3ccccc23)c1 [Compound 12-16],1000 to 3000 nM
5,"COc1cccc(-c2nc(C3CCCN(C(=O)Nc4ccccc4F)C3)n3c(OC)cccc23)c1 (centres unmarked) [Compound 13-1, N-(2-fluorophenyl)-3-(5-methoxy-1-(3-methoxyphenyl)imidazo[1,5-a]pyridin-3-yl)piperidine-1-carboxamide]",100 to 500 nM
6,"COc1cccc(-c2nc(C3CCCN(C(=O)c4ccccc4OC)C3)n3c(OC)cccc23)c1 (centres unmarked) [Compound 14-1, (3-(5-methoxy-1-(3-methoxyphenyl)imidazo[1,5-a]pyridin-3-yl)piperidin-1-yl)(2-methoxyphenyl)methanone]",500 to 1000 nM
7,COc1cccc(-c2nc(C3CCCN(C(=O)c4cc(OC)c(OC)c(OC)c4)C3)n3c(OC)cccc23)c1 (centres unmarked) [Compound 14-2],> 3000 nM
8,COc1cccc(C(=O)N2CCCC(c3nc(-c4cccc(OC)c4)c4cccc(OC)n34)C2)c1 (centres unmarked) [Compound 14-3],> 3000 nM
9,COc1ccc(C(=O)N2CCCC(c3nc(-c4cccc(OC)c4)c4cccc(OC)n34)C2)cc1 (centres unmarked) [Compound 14-4],100 to 500 nM
10,COc1cccc(-c2nc(C3CCCN(C(=O)c4ccc(OC)c(OC)c4)C3)n3c(OC)cccc23)c1 (centres unmarked) [Compound 14-5],100 to 500 nM
11,"COc1cccc(-c2nc(C3CCCN(C(=O)Cc4ccccc4OC)C3)n3c(OC)cccc23)c1 (centres unmarked) [Compound 15-1, 1-(3-(5-methoxy-1-(3-methoxyphenyl)imidazo[1,5-a]pyridin-3-yl)piperidin-1-yl)-2-(2-methoxyphenyl)ethan-1-one]",500 to 1000 nM
12,COc1cccc(-c2nc(C3CCCN(S(=O)(=O)c4ccccc4F)C3)n3ccccc23)c1 (centres unmarked) [Compound 16-1],500 to 1000 nM
13,COc1cccc(-c2nc(C3CCCN(S(=O)(=O)c4ccc(F)cc4)C3)n3ccccc23)c1 (centres unmarked) [Compound 16-3],> 3000 nM
14,COc1cccc(-c2nc(C3CCCN(S(=O)(=O)Cc4cccc(F)c4)C3)n3ccccc23)c1 (centres unmarked) [Compound 16-4],100 to 500 nM
15,COc1cccc(-c2nc(C3CCCN(S(=O)(=O)Cc4ccccc4F)C3)n3ccccc23)c1 (centres unmarked) [Compound 16-5],> 3000 nM
16,COc1cccc(-c2nc(C3CCCN(S(=O)(=O)Cc4ccc(F)cc4)C3)n3ccccc23)c1 (centres unmarked) [Compound 16-6],100 to 500 nM
17,COc1cccc(-c2nc([C@@H]3CCCN(S(=O)(=O)c4cccc(F)c4)C3)n3ccccc23)c1 [Compound 16-7],100 to 500 nM
18,COc1cccc(-c2nc([C@H]3CCCN(S(=O)(=O)Cc4ccc(F)cc4)C3)n3ccccc23)c1 [Compound 16-8],1000 to 3000 nM
19,COc1cccc(-c2nc([C@@H]3CCCN(S(=O)(=O)Cc4ccc(F)cc4)C3)n3ccccc23)c1 [Compound 16-9],< 100 nM
20,COc1cccc(-c2nc([C@H]3CCCN(S(=O)(=O)c4cccc(F)c4)C3)n3ccccc23)c1 [Compound 16-10],1000 to 3000 nM
21,"COc1cccc(-c2nc(C3CCCN(C(=O)Nc4ccccc4F)C3)n3cccc(C)c23)c1 (centres unmarked) [Compound 17-1, N-(2-fluorophenyl)-3-(1-(3-methoxyphenyl)-8-methylimidazo[1,5-a]pyridin-3-yl)piperidine-1-carboxamide]",100 to 500 nM
22,COc1cccc(-c2nc(C3CCCN(C(=O)Nc4ccccc4F)C3)n3ccc(C)cc23)c1 (centres unmarked) [Compound 17-2],500 to 1000 nM

row,Structure (SMILES),IC50
1,COc1cccc(-c2nc(C3CCCN(C(=O)Nc4ccccc4F)C3)n3c(C)cccc23)c1 (centres unmarked) [Compound 17-3],100 to 500 nM
2,"COc1cccc(-c2nc(C3CCCN(C(=O)Nc4ccccc4F)C3)n3cc(C)ccc23)c1 (centres unmarked) [Compound 18-1, N-(2-fluorophenyl)-3-(1-(3-methoxyphenyl)-6-methylimidazo[1,5-a]pyridin-3-yl)piperidine-1-carboxamide]",100 to 500 nM
3,COc1cccc(-c2nc(C3CCCN(C(=O)Nc4ccccc4F)C3)n3cccc(OC)c23)c1 (centres unmarked) [Compound 19-1],> 3000 nM
4,COc1cccc(-c2nc(C3CCCN(C(=O)Nc4ccccc4F)C3)n3ccc(OC)cc23)c1 (centres unmarked) [Compound 19-2],> 3000 nM
5,"COc1cccc(-c2nc(C3CCCN(C(=O)Nc4ccccc4F)C3)n3cc(OC)ccc23)c1 (centres unmarked) [Compound 19-3, N-(2-fluorophenyl)-3-(6-methoxy-1-(3-methoxyphenyl)imidazo[1,5-a]pyridin-3-yl)piperidine-1-carboxamide]",1000 to 3000 nM
6,"COc1cccc(-c2nn([C@@H]3CCCN(C(=O)Nc4ccc(N(C)C)cc4)C3)c3ncccc23)c1 [Compound 20-1, (R)—N-(4-(dimethylamino)phenyl)-3-(3-(3-methoxyphenyl)-1H-pyrazolo[3,4-b]pyridin-1-yl)piperidine-1-carboxamide]",< 100 nM
7,COc1cccc(-c2nn([C@@H]3CCCN(C(=O)Nc4cccc(N(C)C)c4)C3)c3ncccc23)c1 [Compound 20-2],< 100 nM
8,COc1cccc(-c2nn([C@H]3CCCN(C(=O)Nc4cccc(N(C)C)c4)C3)c3ncccc23)c1 [Compound 20-3],1000 to 3000 nM
9,COc1cccc(-c2nn([C@H]3CCCN(C(=O)Nc4ccc(N(C)C)cc4)C3)c3ncccc23)c1 [Compound 20-4],1000 to 3000 nM
10,"COc1cccc(-c2nc([C@@H]3CCN(C(=O)Nc4ccccc4F)C3)n3ccccc23)c1 [Compound 21-1, (R)—N-(2-fluorophenyl)-3-(1-(3-methoxyphenyl)imidazo[1,5-a]pyridin-3-yl)pyrrolidine-1-carboxamide]",500 to 1000 nM
11,COc1cccc(-c2nc([C@H]3CCN(C(=O)Nc4ccccc4F)C3)n3ccccc23)c1 [Compound 21-2],1000 to 3000 nM
12,CNC(=O)N1CCC[C@H]1c1nc(-c2cccc(OC)c2)c2ccccn12 [Compound 21-3],> 3000 nM
13,CNC(=O)N1CCC[C@@H]1c1nc(-c2cccc(OC)c2)c2ccccn12 [Compound 21-4],> 3000 nM
14,COc1cccc(-c2nc([C@@H]3CCCN3C(=O)Nc3ccc(N(C)C)cc3)n3ccccc23)c1 [Compound 21-5],> 3000 nM
15,COc1cccc(-c2nc([C@H]3CCCN3C(=O)Nc3ccc(N(C)C)cc3)n3ccccc23)c1 [Compound 21-6],> 3000 nM
16,"COc1cccc(-c2nc(C3CCCN3C(=O)Nc3ccccc3F)n3ccccc23)c1 (centres unmarked) [Compound 22-1, N-(2-fluorophenyl)-2-(1-(3-methoxyphenyl)imidazo[1,5-a]pyridin-3-yl)pyrrolidine-1-carboxamide]",1000 to 3000 nM
17,"COc1cccc(-c2nc(C3CN(C(=O)Nc4cccc(N(C)C)c4)C3)n3ccccc23)c1 [Compound 23-1, N-(3-(dimethylamino)phenyl)-3-(1-(3-methoxyphenyl)imidazo[1,5-a]pyridin-3-yl)azetidine-1-carboxamide]",> 3000 nM
18,COc1cccc(-c2nc(C3CN(C(=O)Nc4ccc(N(C)C)cc4)C3)n3ccccc23)c1 [Compound 23-2],> 3000 nM
19,"COc1cccc(-c2nn(-c3cccc(C(=O)Nc4ccc(N(C)C)cc4)c3)c3ncccc23)c1 [Compound 24-1, N-(4-(dimethylamino)phenyl)-3-(3-(3-methoxyphenyl)-1H-pyrazolo[3,4-b]pyridin-1-yl)benzamide]",100 to 500 nM
20,COc1cccc(-c2nn(-c3cccc(C(=O)Nc4cccc(N(C)C)c4)c3)c3ncccc23)c1 [Compound 24-2],500 to 1000 nM
21,"COc1cccc(-c2nc(-c3ccc(C(=O)Nc4ccc(N(C)C)cc4)s3)n3ccccc23)c1 [Compound 25-1, N-(4-(dimethylamino)phenyl)-5-(1-(3-methoxyphenyl)imidazo[1,5-a]pyridin-3-yl)thiophene-2-carboxamide]",1000 to 3000 nM
22,"COc1cccc(-c2nc(C3CCCN(C(=O)Nc4ccc(N(C)C)cc4)C3)c3ccccn23)c1 (centres unmarked) [Compound 26-1, N-(4-(dimethylamino)phenyl)-3-(3-(3-methoxyphenyl)imidazo[1,5-a]pyridin-1-yl)piperidine-1-carboxamide]",< 100 nM
